In patent US20100028889A1, “COMPANION DIAGNOSTIC ASSAYS FOR CANCER THERAPY” (ABBOTT LABORATORIES, priority 2006, published 2010):
pEC50: −log10 of the molar value. Like-named read-outs stand apart in the source and are kept apart here.

What was measured:
Assay type in all cases: cell-based, human
CCRF-CEM = assay: cell cytotoxicity EC50, CellTiter Glo, leukemia/lymphoma cell line
Procedure: (§1) The SCLC and leukemia/lymphoma cell lines listed below were obtained from the American Type Culture Collection (Manassas, Va.), Deutsche Sammlung von Mikroorganismen und Zellkulturen (DSMZ, Braunsweig, Germany), or were the generous gift from Dr. Louis Staudt (National Cancer Institute) and were cultured as described in Tse, C., Shoemaker, A. R., Adickes, J., et al., “ABT-263: a potent and orally bioavailable Bcl-2 family inhibitor,” Cancer Res 2008; 68: 3421-3428; and Tahir, S. K., Yang, X., Anderson, M. G., et al., “Influence of Bcl-2 family members on the cellular response of small-cell lung cancer cell lines to ABT-737,” Cancer Res 2007; 67: 1176-1183.
(§2) Cells were treated at 10,000 or 50,000 cells per well for adherent or suspension cells, respectively, in 96-well microtiter plates in the presence of 10% human serum for 48 hours with or without ABT-263, in a humidified chamber with 5% CO2. ABT-263 was synthesized as previously described in Tse, C., Shoemaker, A. R., Adickes, J., et al., “ABT-263: a potent and orally bioavailable Bcl-2 family inhibitor,” Cancer Res 2008; 68: 3421-3428; and Oltersdorf, T., Elmore, S. W., Shoemaker, A. R., et al., “An inhibitor of Bcl-2 family proteins induces regression of solid tumours,” Nature 2005; 435: 677-681, and cell cytotoxicity EC50 values were assessed using CellTiter Glo (Promega, Madison Wis.).

DOHH2 = assay: as above; details: DOHH-2
Procedure: as §1, §2

Granta = assay: cell cytotoxicity EC50, CellTiter Glo, Mantle Cell Lymphoma cell line
Procedure: as §1, §2

HBL-2 = assay: as above
Procedure: as §1, §2

JVM-13 = assay: as above
Procedure: as §1, §2

JVM-2 = assay: as above
Procedure: as §1, §2

JeKo-1 = assay: as above
Procedure: as §1, §2

Mino = assay: as above
Procedure: as §1, §2

SP53 = assay: as above
Procedure: as §1, §2

Rec-1 [1] = assay: cell cytotoxicity EC50, CellTiter Glo, Mantle Cell Lymphoma cell line, Rec-1 sub-clone batch listed first
Procedure: as §1, §2

Rec-1 [2] = assay: cell cytotoxicity EC50, CellTiter Glo, Mantle Cell Lymphoma cell line, Rec-1 sub-clone batch listed second
Procedure: as §1, §2

SCLC cell lines = assay: categorisation of the SCLC cell line panel by EC50; details: EC50 less than or equal to 4.1 μM
Procedure: as §2
(§3) o divide the training set cell lines into sensitive and resistant categories, a bivariate fit curve was generated for the ABT-263 EC50 versus rank and fitted with a smoothing spline (lambda=1), and the maximum increase in the slope was approximately 5 μM for both sets. […]
(§4) Division of cell lines into sensitive and resistant categories. […] To identify gene expression patterns that can predict sensitivity to ABT-263, as well as genes that might contribute to resistance to treatment, RNA expression profiles for a panel of SCLC cell lines were determined, as well as a panel of leukemia and lymphoma cell lines. […]

[3] = system: leukemia/lymphoma cell lines; assay: categorisation of the leukemia/lymphoma cell line panel by EC50; details: EC50 less than or equal to 4.8 μM
Procedure: as §2, §3, §4

[4] = 10% human serum, 48 hours, read-out: EC50
[5] = Homo sapiens, read-out: Response Designation
[6] = Homo sapiens, Rec1, read-out: Response Designation
[7] = Rec1, 10% human serum, 48 hours, read-out: EC50

CC1(C)CCC(c2ccc(Cl)cc2)=C(CN2CCN(c3ccc(C(=O)NS(=O)(=O)c4ccc(N[C@H](CCN5CCOCC5)CSc5ccccc5)c(S(=O)(=O)C(F)(F)F)c4)cc3)CC2)C1 [ABT-263, N-(4-(4-((2-(4-chlorophenyl)-5,5-dimethyl-1-cyclohex-1-en-1-yl)methyl)piperazin-1-yl)benzoyl)-4-(((1R)-3-(morpholin-4-yl)-1-((phenylsulfanyl)methyl)propyl)amino)-3-((trifluoromethyl)sulfonyl)benzenesulfonamide]
pEC50 (CCRF-CEM; [4]): 6.12 | pEC50 (CCRF-CEM; [5]): ≥ 5.32 | pEC50 (DOHH2; DoHH2, 10% human serum, 48 hours, read-out: EC50): 6.49 | pEC50 (DOHH2; Homo sapiens, DOHH2, read-out: Response Designation): ≥ 5.32 | pEC50 (Granta; [4]): 7.39 | pEC50 (Granta; [5]): ≥ 5.32 | pEC50 (HBL-2; HBL2, 10% human serum, 48 hours, read-out: EC50): 7.51 | pEC50 (HBL-2; Homo sapiens, HBL2, read-out: Response Designation): ≥ 5.32 | pEC50 (JVM-13; Homo sapiens, JVM13, read-out: Response Designation): < 5.32 | pEC50 (JVM-13; JVM13, 10% human serum, 48 hours, read-out: EC50): 4.89 | pEC50 (JVM-2; [4]): 5.39 | pEC50 (JVM-2; [5]): ≥ 5.32 | pEC50 (JeKo-1; [4]): 5.76 | pEC50 (JeKo-1; [5]): ≥ 5.32 | pEC50 (Mino; Homo sapiens, MINO, read-out: Response Designation): ≥ 5.32 | pEC50 (Mino; Mino, 10% human serum, 48 hours, read-out: EC50): 7.48 | pEC50 (SP53; [4]): 6.85 | pEC50 (SP53; [5]): ≥ 5.32 | pEC50 (Rec-1 [1]; [6]): ≥ 5.32 | pEC50 (Rec-1 [1]; [7]): 7.47 | pEC50 (Rec-1 [2]; [6]): ≥ 5.32 | pEC50 (Rec-1 [2]; [7]): 6.16 | SCLC cell lines categorized as being sensitive (SCLC cell lines): 26 out of 36 | leukemia/lymphoma cell lines categorized as being sensitive [3]: 25 out of 31
